This is an account of results in publication PMC4457651 (Biochimica et biophysica acta, 2015).

The target of series [1] is T1, yeast cytochrome c peroxidase (yCcP) (Saccharomyces cerevisiae, UniProt P00431).
T1 sequence (P00431 68-361): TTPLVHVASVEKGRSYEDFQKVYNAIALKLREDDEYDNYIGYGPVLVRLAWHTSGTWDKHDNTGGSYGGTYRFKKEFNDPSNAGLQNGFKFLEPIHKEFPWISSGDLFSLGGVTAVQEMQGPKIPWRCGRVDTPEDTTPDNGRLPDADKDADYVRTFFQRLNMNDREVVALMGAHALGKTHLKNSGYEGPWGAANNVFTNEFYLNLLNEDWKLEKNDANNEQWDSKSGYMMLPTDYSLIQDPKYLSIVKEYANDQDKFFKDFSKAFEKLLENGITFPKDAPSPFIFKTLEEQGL
Description: Equilibrium binding to heme of yCcP by spectrophotometric titration. More on the design: species or system S. cervisiae. Conditions: for KAapp: calculated from best-fit line.

In series [2] the target is yCcP (heme and Trp-191 cavity) (Saccharomyces cerevisiae, UniProt P00431). The series can be described thus: Kinetics of ligand binding to yCcP. More on the design: species or system S. cervisiae. The note with it: for KA2: Trp-191 cavity of yCcP; for KA2 / k4: fit to Eq. 5; for k4: Trp-191 cavity of yCcP/MIM complex.
The target of series [3] is rCcP (heme and Trp-191 cavity) (Saccharomyces cerevisiae, UniProt P00431). Description: Kinetics of ligand binding to rCcP. More on the design: species or system baker's yeast. The note with it: for Time for initial binding phase to be complete: first kinetic phase, manual mixing.
The target in the next series is horse metMb. The note with it: read-out: KDapp, metMb; pH 7; cited from earlier work.
For a further series, the system named is sperm whale metMb. Conditions: cited from earlier work.
Series [4] concerns the target recombinant cytochrome c peroxidase (rCcP) (Saccharomyces cerevisiae, UniProt P00431). Description: Equilibrium binding to heme of rCcP by spectrophotometric titration. Details: species or system baker's yeast.
The target in a further series is CcP(H52L) (Saccharomyces cerevisiae, UniProt P00431, H119L). The series can be described thus: Equilibrium binding to CcP. More on the design: species or system baker's yeast.
CcP(H52L), sequence (P00431 68-361 H119L): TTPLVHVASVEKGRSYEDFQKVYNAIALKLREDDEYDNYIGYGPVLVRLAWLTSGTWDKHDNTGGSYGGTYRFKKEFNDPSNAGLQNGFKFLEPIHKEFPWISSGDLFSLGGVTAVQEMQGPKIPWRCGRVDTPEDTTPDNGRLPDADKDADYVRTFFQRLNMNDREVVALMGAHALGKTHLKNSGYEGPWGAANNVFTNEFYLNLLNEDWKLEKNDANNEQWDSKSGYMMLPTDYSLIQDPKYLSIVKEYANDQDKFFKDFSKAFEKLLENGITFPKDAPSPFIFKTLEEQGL
The target of a further series is CcP(W191G). The note with it: read-out: Apparent KD, CcP(W191G)/imidazole complex; cited from earlier work.
The target of another series is horse cytochrome c. The note with it: read-out: KD, horse cytochrome c imidazole complex; cited from earlier work.
Series [5] has as its target Chironomus plumosus metHb. The note with it: read-out: KD, Chironomus plumosus metHb imidazole complex; cited from earlier work.
The target in series [6] is Rhodobacter sphaeroides cytochrome c1. Conditions: read-out: KD, Rhodobacter sphaeroides cytochrome c1 imidazole complex; cited from earlier work.
In series [7] the target is R. capsulatus cytochrome c2(M96N). The note with it: read-out: KD, R. capsulatus cytochrome c2(M96N) imidazole complex; cited from earlier work.
The next series concerns the target nitric oxide synthase. Conditions: read-out: KD, nitric oxide synthase imidazole complex; cited from earlier work.
The subject of series [8] is horseradish peroxidase (HRP). The note with it: pH 9.3; cited from earlier work.
A further series has as its system cytochrome P450CAM. The note with it: read-out: KD, cytochrome P450CAM imidazole complex; cited from earlier work.
For series [9] the following is noted: ionization of free imidazole; cited from earlier work.
The conditions of series [10]: neutral pH; cited from earlier work.
[11] abbreviates: pH 7.0, biphasic imidazole titration.
Setting [12] is: 8.76 μM rCcP, 3.15 M imidazole, pH 7.0.

Where only a bound is given, the exact number is not on record here.

With `Cn1ccnc1` [1-Methylimidazole, 1-methylimidazole], in [1] (Saccharomyces cerevisiae (yeast), pH 4), the “Apparent pKa of ionizable group affecting MIM binding affinity” value came to 5.2 ± 0.3. Also, the “Increase in binding affinity on decreasing pH from 7.5 to 4.0” value in series [1] (yCcP) is on record as 4 fold. Moreover, the KAapp is 4.72 M⁻¹ in series [1] (yCcP, pH 4.1); 4.37 M⁻¹ in series [1] (yCcP, pH 4.5); 3.53 M⁻¹ in series [1] (yCcP, pH 5.0); 2.48 M⁻¹ in series [1] (yCcP, pH 5.5); 1.74 M⁻¹ in series [1] (yCcP, pH 6.0); 1.40 M⁻¹ in series [1] (yCcP, pH 6.5). Moreover, the KAapp was 1.30 M⁻¹ in series [1] (yCcP, pH 7.0) and 1.24 M⁻¹ in [1] (yCcP, pH 7.5). The Kd in series [2] is 5 ± 2 mM; on horse metMb, 87 mM. The KA2 entry is listed as “(2.94 ± 0.28) × 10^2 M^−1” in series [2] (pH 4.1); “(9.19 ± 0.52) × 10^1 M^−1” in series [2] (pH 4.5); “(1.74 ± 0.17) × 10^2 M^−1” in series [2] (pH 5.0); “(1.73 ± 0.35) × 10^2 M^−1” in series [2] (pH 5.5); “(2.64 ± 0.18) × 10^2 M^−1” in series [2] (pH 6.0); “(2.13 ± 0.27) × 10^2 M^−1” in series [2] (pH 6.5). Further, the KA2 entry in series [2] (pH 7.0) is given as “(2.13 ± 0.81) × 10^3 M^−1”; in series [2] (pH 7.5), “(4.52 ± 5.10) × 10^3 M^−1”. Moreover, the k4 entry was “(1.55 ± 0.08) × 10^−1 M^−1 s^−1” in series [2] (pH 4.1); “(2.49 ± 0.16) × 10^−2 M^−1 s^−1” in series [2] (pH 4.5); “(2.72 ± 0.35) × 10^−2 M^−1 s^−1” in series [2] (pH 5.0); “(1.14 ± 0.03) × 10^−2 M^−1 s^−1” in series [2] (pH 5.5); “(1.60 ± 0.03) × 10^−2 M^−1 s^−1” in series [2] (pH 6.0); “(1.26 ± 0.03) × 10^−2 M^−1 s^−1” in series [2] (pH 6.5). The figures for the k4 entry in series [2] (pH 7.0) and in [2] (pH 7.5) were “(9.21 ± 3.17) × 10^−3 M^−1 s^−1” and “(5.48 ± 1.2) × 10^0 M^−1 s^−1”, respectively. Also, the “k4, average” value in series [2] (binding into Trp-191 cavity of heme-ligated yCcP, average pH 4.1 to 6.5) is given as “(4.1 ± 0.6) × 10^−2 M^−1s^−1”. In series [2] (binding into Trp-191 cavity, yCcP, average pH 4.1 to 6.5), the “KA2, average” value came to 200 ± 70 M⁻¹. The “kfobs faster than kfobs for the imidazole/CcP reaction” value in [3] is listed as “about 10 times”. Also, the “ksobs, observed rate constant of slow absorbance change” value in [3] (9.07 μM rCcP, 0.992 M MIM, pH 7.0) is on record as “(1.13 ± 0.06) × 10^−4 s^−1”. The “kfobs, lower limit for initial binding” value in [3] (assuming 97% of reaction complete within 10 s mixing) is at least 0.35 s⁻¹. Further, the figures for the “Time for initial binding phase to be complete” value in [3] and in series [3] (listed as MIM) were at most 10 s and “less than 10 s”, respectively. The “KA1 as fraction of KAapp” value in [3] (pH 7) is given as “about 4%”.

As to `c1c[nH]cn1` [imidazolium ion], the “Rate constant of binding to sperm whale metMb” value in the series on sperm whale metMb was 127 M⁻¹ s⁻¹.

Take `c1c[nH]cn1` [Imidazole, imidazole]: the “Fraction of yCcP bound to ligand at highest ligand concentration” value in series [1] (imidazole up to 4.90 M, pH 7.0) is listed as “about 60%”. In addition, in series [1] (pH 7), the “Binding to CcP weaker than binding to metmyoglobin” value was “about 120 times”. For the same molecule, the “KDapp of rCcP complex larger than for yCcP complex” value in series [4] (pH 7.0) is given as “about 40%”. Moreover, the “High-affinity phase of CcP(H52L): greater affinity than yCcP” value at CcP(H52L) came to 25 fold. The “Low-affinity phase of CcP(H52L) weaker than binding by yCcP” value on CcP(H52L) is “about 3 times”. The “Fraction of high-affinity phase, CcP(H52L)” value at CcP(H52L) (setting [11]) is under 46%. In addition, at CcP(H52L) (setting [11]), the “Fraction of low-affinity phase, CcP(H52L)” value is given as over 54%. Also, the “kfobs, observed rate constant of fast phase” value in [3] (setting [12]) is on record as “(2.13 ± 0.08) × 10^−2 s^−1”. Also, the “ksobs, observed rate constant of slow phase” value in [3] (setting [12]) is recorded as “(2.91 ± 0.01) × 10^−4 s^−1”. The Kd on horse metMb is 28 mM; at sperm whale metMb (read-out: KD, sperm whale metmyoglobin imidazole complex) it was 26 mM; at CcP(W191G), 0.7 mM; at horse cytochrome c it was 34 mM; in series [5], 0.029 mM; in series [6] it was 0.033 mM. In addition, the results for the Kd (in series [7]; on nitric oxide synthase; in the series with cytochrome P450CAM) were 0.0018 mM, 0.063 mM and 0.4 mM, respectively. For the same molecule, the “Rate constant of binding to sperm whale metMb” value in the series on sperm whale metMb was 360 M⁻¹ s⁻¹. For the same molecule, in series [8], the “Formation of HRP/imidazole complex” value is given as “Only partial formation”. In addition, the “pKA of free imidazole” value in series [9] is recorded as 14.4.

As to `O=[N+]([O-])c1c[nH]cn1` [4-Nitroimidazole, 4-nitroimidazole], in [1] (~5 mM 4NI, pH 7.0, estimate), the “Fraction of yCcP bound to ligand at highest ligand concentration” value is “about 2%”. The Kd was about 100 mM in series [4], about 30 mM on CcP(H52L) and 2.5 mM at horse metMb. Also, the “Fraction of rCcP bound to ligand at highest ligand concentration” value in series [4] (~5 mM 4NI, pH 7.0, estimate) was ~ 5%. At CcP(H52L) (4.80 mM 4NI, pH 7.0, estimate), the “Fraction of CcP(H52L)/4NI complex formed” value is listed as “about 14%”. The “Affinity of CcP(H52L) higher than CcP” value on CcP(H52L) (estimated) is 7 fold. For the same molecule, the “Concentration of saturated solution in aqueous buffer” value in series [10] is “less than 6 mM”.
